According to ChEMBL document CHEMBL5465560, “Selectivity Literature for EUbOPEN Chemogenomic Library” (2024):

What was measured:
[1] = target: Mitogen-activated protein kinase kinase kinase 1 (Homo sapiens, UniProt Q13233); experiment: Selectivity interaction (KinomeScan (DiscoverX)) EUB0001049a MAP3K1; details: at 1 µM
[2] = target: Tyrosine-protein kinase BTK (Homo sapiens, UniProt Q06187); experiment: Selectivity interaction (Millipore kinase profiler) EUB0000124b BTK; details: at 10 µM
[3] = target: Ribosomal protein S6 kinase alpha-1 (Homo sapiens, UniProt Q15418); experiment: Selectivity interaction (Millipore kinase profiler) EUB0000124b RPS6KA1; details: at 10 µM
Ribosomal protein S6 kinase alpha-1, sequence (Q15418 whole entry): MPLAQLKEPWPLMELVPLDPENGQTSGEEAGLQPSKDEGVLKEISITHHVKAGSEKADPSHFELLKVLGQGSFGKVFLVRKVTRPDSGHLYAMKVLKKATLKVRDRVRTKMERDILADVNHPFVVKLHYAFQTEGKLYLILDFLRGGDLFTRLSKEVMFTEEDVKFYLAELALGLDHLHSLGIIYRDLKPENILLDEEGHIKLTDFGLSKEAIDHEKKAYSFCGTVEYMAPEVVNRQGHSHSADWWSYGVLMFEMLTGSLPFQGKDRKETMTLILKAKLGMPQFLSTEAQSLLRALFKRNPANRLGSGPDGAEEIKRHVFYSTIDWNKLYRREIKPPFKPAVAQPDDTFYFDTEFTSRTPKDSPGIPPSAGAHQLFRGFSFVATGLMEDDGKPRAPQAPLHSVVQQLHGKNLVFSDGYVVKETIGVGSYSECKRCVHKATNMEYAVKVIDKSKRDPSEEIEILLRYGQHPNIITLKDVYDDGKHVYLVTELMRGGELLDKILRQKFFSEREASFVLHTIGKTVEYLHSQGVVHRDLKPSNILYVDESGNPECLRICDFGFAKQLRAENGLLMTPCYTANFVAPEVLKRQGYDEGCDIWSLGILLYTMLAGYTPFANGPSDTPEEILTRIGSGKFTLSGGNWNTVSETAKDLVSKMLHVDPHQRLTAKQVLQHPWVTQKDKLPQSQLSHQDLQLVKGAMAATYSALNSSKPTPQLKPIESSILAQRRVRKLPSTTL

[4] = target: RAC-alpha serine/threonine-protein kinase (Homo sapiens, UniProt P31749); experiment: Selectivity interaction (KinomeScan (DiscoverX)) EUB0000595a AKT1; details: at 10 µM
[5] = target: Tyrosine-protein kinase CSK (Homo sapiens) (UniProt P41240); experiment: Selectivity interaction (Ambit KINOMEscan and KiNATiv profiling in Jurkat cells) EUB0000090b CSK; type: cell-based; details: at 1 µM
[6] = target: Calcium/calmodulin-dependent protein kinase type 1D (Homo sapiens) (UniProt Q8IU85); experiment: Selectivity interaction (Ambit KINOMEscan and KiNATiv profiling in Jurkat cells) EUB0000090b CAMK1D; type: cell-based; details: at 1 µM
[7] = target: Histone-lysine N-methyltransferase SETD2 (Homo sapiens) (UniProt Q9BYW2); experiment: Selectivity interaction (Methyltransferase screen (Scintillation proximity assays)) EUB0000255b SETD2
Histone-lysine N-methyltransferase SETD2 (Homo sapiens), sequence (Q9BYW2 whole entry): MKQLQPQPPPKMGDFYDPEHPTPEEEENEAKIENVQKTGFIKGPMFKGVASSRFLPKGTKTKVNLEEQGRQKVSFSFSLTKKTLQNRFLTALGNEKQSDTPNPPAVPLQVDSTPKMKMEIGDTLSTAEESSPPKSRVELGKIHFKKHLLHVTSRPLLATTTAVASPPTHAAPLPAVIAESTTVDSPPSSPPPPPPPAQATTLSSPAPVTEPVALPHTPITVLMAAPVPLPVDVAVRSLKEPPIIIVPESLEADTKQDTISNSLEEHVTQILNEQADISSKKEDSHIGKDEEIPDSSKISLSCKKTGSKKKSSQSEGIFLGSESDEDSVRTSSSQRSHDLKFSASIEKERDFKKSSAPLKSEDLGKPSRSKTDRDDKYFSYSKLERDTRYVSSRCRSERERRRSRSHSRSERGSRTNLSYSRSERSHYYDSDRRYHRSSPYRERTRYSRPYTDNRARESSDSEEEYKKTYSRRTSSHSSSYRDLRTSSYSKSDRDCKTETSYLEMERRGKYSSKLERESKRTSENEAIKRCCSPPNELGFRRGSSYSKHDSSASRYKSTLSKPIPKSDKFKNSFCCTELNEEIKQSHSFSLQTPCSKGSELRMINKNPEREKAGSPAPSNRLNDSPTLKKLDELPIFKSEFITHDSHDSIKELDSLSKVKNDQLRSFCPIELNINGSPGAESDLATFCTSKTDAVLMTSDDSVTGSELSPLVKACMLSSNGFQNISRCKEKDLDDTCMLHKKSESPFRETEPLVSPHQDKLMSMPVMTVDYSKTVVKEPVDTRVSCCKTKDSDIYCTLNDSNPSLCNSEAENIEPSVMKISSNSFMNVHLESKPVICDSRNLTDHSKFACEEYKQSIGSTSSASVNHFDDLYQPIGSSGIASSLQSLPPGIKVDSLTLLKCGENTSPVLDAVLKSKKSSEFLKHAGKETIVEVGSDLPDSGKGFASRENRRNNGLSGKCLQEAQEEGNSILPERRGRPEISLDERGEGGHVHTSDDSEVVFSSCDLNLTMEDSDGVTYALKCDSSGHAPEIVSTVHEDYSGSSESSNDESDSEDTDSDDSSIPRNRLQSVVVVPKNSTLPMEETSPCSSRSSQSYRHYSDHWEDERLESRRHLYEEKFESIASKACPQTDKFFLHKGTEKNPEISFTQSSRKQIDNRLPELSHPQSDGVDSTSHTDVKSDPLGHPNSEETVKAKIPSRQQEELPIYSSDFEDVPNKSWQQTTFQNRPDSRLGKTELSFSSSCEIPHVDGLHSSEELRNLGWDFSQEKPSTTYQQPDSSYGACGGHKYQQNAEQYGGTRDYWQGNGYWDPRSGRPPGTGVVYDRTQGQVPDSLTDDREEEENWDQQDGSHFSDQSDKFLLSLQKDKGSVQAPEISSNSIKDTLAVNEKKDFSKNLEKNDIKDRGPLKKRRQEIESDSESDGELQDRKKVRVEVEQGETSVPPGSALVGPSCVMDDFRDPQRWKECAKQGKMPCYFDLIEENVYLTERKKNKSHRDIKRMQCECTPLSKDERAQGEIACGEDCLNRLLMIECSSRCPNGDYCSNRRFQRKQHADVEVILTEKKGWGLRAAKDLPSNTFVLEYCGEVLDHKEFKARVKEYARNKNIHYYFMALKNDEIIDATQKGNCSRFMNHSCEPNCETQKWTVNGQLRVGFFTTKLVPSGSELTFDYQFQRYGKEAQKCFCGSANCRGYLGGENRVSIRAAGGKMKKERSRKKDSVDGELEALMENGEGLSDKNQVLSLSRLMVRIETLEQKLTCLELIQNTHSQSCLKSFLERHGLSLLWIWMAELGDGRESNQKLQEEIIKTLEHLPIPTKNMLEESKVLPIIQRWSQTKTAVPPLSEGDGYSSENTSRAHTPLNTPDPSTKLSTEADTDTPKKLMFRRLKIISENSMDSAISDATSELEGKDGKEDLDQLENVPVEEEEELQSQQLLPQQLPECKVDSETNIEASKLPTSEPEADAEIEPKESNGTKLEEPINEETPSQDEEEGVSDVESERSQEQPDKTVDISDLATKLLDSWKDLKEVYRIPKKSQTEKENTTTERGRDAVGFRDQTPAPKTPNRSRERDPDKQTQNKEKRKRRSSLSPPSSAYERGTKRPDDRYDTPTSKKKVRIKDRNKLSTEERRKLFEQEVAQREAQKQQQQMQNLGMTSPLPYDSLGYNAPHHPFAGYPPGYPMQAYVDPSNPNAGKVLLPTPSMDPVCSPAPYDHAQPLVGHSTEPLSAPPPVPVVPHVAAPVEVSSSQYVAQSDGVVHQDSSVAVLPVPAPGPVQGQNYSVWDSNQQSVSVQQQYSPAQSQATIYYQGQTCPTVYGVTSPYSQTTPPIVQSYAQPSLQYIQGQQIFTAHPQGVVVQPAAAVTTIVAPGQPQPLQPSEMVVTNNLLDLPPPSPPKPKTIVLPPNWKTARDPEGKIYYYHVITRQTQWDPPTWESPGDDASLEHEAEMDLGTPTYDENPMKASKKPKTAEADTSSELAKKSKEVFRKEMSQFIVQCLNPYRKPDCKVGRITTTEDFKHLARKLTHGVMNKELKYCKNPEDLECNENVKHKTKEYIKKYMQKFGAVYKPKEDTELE

[8] = target: T1, Ephrin type-A receptor 3 (Homo sapiens) (UniProt P29320); experiment: Selectivity interaction (KinomeScan (DiscoverX)) EUB0000618a EPHA3; details: at 10 µM
T1 sequence (whole entry): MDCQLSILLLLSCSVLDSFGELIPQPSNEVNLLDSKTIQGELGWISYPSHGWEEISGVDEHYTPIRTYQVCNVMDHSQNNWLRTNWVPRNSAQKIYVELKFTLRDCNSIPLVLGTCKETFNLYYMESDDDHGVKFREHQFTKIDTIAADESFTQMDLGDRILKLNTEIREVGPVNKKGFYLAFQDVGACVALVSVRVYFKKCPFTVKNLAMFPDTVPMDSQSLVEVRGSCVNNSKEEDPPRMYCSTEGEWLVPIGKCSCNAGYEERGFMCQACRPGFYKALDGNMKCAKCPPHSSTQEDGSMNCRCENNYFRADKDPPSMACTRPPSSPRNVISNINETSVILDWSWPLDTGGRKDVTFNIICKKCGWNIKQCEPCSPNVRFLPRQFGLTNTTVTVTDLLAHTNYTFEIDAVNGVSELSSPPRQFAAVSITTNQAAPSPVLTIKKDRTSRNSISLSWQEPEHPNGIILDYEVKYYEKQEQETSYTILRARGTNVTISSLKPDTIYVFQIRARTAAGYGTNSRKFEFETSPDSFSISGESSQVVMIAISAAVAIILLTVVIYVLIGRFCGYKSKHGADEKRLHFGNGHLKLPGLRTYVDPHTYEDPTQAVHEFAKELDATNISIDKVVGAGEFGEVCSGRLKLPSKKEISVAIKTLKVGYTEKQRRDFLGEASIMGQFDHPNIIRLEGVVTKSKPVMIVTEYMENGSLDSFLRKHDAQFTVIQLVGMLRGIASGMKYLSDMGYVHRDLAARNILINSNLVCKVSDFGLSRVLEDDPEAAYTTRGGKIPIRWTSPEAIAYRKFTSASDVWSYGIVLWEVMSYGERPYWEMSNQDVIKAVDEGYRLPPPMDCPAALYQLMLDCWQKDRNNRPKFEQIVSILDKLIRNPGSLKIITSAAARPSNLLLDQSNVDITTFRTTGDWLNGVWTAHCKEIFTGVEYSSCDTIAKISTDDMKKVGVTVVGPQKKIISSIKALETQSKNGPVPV

[9] = target: Bone morphogenetic protein receptor type-1A (Homo sapiens, UniProt P36894); experiment: Selectivity interaction (KinomeScan (DiscoverX)) EUB0001619a BMPR1A; details: at 1 µM
Bone morphogenetic protein receptor type-1A, sequence (P36894 whole entry): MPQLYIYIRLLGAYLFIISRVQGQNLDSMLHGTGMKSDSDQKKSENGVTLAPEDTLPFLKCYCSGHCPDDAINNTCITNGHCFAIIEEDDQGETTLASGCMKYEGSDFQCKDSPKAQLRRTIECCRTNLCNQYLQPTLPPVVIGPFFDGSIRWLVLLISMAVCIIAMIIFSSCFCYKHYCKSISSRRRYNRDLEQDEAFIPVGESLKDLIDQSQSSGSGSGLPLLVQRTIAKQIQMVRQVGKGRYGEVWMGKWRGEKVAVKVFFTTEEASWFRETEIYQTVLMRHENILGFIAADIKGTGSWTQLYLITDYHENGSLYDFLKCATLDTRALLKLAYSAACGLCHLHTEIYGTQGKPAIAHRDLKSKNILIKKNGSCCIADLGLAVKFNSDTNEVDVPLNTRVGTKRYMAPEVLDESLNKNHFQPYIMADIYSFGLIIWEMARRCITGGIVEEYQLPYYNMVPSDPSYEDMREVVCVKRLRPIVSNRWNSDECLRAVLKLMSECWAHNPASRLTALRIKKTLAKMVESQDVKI

[10] = target: T2, Mitogen-activated protein kinase 15 (Homo sapiens) (UniProt Q8TD08); experiment: Selectivity interaction (KinomeScan (DiscoverX)) EUB0000695a MAPK15; details: at 100 nM
T2 sequence (whole entry): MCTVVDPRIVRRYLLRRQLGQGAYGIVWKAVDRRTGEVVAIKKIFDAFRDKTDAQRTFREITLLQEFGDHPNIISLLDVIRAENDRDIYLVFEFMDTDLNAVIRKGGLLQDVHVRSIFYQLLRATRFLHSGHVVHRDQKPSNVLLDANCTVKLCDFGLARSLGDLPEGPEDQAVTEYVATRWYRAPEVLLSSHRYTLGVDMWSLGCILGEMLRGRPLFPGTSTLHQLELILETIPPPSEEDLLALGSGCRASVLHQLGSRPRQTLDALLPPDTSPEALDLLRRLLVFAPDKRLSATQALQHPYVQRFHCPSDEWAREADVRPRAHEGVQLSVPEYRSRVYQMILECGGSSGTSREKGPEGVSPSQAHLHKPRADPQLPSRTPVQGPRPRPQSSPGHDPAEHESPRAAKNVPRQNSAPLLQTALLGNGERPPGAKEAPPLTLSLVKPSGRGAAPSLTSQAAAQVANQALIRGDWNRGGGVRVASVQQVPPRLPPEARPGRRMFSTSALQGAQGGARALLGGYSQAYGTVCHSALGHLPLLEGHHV

[11] = system: Epidermal growth factor receptor (Homo sapiens), P00533 [UNDEFINED MUTATION]; experiment: Selectivity interaction (KinomeScan (DiscoverX)) EUB0000607a EGFR; details: at 10 µM
Epidermal growth factor receptor (Homo sapiens), P00533 [UNDEFINED MUTATION], sequence (P00533 whole entry, looked up, change not shown): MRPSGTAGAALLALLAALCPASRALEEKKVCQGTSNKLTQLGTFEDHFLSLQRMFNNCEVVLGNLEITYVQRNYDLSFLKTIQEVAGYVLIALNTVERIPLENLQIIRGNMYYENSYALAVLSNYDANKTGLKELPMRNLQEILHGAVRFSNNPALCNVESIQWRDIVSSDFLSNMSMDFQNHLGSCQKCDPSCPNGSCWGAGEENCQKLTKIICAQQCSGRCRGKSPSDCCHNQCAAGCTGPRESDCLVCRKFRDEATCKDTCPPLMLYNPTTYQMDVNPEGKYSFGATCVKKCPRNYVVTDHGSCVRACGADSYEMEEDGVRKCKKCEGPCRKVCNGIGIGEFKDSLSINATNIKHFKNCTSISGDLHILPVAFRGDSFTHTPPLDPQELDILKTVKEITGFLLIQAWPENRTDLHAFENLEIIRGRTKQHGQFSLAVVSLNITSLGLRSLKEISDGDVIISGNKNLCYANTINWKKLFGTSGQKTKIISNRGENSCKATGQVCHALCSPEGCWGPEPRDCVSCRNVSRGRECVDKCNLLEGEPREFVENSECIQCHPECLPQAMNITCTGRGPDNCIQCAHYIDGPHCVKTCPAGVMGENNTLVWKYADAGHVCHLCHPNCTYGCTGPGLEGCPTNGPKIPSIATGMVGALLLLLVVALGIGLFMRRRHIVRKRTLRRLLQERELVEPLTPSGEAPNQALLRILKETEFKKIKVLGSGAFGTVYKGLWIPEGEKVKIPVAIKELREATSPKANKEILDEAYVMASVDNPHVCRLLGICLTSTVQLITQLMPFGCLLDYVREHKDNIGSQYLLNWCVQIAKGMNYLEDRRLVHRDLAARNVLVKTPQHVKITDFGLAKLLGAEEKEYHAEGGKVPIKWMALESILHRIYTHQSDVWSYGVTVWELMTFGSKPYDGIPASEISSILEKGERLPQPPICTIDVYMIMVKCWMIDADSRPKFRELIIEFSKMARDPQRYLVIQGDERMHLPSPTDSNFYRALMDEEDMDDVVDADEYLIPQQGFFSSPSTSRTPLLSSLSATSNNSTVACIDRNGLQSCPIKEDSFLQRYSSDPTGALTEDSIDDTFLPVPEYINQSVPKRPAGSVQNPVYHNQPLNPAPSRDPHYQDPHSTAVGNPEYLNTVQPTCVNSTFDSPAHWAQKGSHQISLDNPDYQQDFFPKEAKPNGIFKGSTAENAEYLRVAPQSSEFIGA

[12] = target: T3, Eukaryotic elongation factor 2 kinase (Homo sapiens) (UniProt O00418); experiment: Selectivity interaction (Kinase panel (Z-LYTE Assay)) EUB0001632a EEF2K; details: at 10 µM
T3 sequence (whole entry): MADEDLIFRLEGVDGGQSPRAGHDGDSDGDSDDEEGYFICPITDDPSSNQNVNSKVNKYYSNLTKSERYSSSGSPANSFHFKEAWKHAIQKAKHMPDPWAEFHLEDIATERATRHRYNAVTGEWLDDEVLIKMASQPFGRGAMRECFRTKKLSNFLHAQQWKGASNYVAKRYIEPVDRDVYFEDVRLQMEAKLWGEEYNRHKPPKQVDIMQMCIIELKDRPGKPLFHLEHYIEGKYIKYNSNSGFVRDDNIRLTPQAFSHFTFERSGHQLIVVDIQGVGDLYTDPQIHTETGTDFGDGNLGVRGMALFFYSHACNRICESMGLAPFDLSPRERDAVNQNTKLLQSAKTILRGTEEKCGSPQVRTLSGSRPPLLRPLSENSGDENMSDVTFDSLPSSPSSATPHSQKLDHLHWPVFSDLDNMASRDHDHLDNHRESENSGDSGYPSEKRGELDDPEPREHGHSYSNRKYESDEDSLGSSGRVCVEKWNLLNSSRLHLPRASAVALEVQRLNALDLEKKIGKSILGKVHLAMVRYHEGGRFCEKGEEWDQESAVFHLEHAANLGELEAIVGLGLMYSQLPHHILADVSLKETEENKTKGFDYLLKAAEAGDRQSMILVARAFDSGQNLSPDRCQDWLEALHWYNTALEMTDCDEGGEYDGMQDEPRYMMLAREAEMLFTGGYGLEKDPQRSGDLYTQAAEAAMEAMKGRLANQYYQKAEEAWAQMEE

Compound: COc1cc(Nc2nc(C)cc(-c3cnn4nc(OC)ccc34)n2)cc(C(F)(F)F)c1
- % of control [1]: 86%

Compound: CC(=O)Nc1cccc(-n2c(=O)n(C3CC3)c(=O)c3c(Nc4ccc(I)cc4F)n(C)c(=O)c(C)c32)c1
- % of control [2]: 104%
- % of control [3]: 116%

Compound: COCC(=O)NC/C=C/c1ccc2ncnc(Nc3ccc(Oc4ccc(C)nc4)c(C)c3)c2c1 [CP-724714]
- % of control [4]: 100%

Compound: CN(C)C/C=C/C(=O)Nc1ccc(C(=O)N2CCCC(Nc3ncc(Cl)c(-c4c[nH]c5ccccc45)n3)C2)cc1 (stereo not drawn)
- % of control [5]: 95%
- % of control [6]: 78%

Compound: COCCN1CCC(c2cc(CN(C)C(=O)c3cccc(Oc4ccccc4)c3)ccn2)CC1
- % activity ([7]; at 1 µM): > 95%
- % activity ([7]; at 10 µM): > 90%

Compound: O[C@H]1CC[C@H](Nc2ncc3nc(Nc4c(F)cc(F)cc4F)n([C@H]4CCOC4)c3n2)CC1
- % of control [8]: 85%

Compound: N#Cc1cccc(-c2c[nH]c3ncnc(N4CCOCC4)c23)c1
- % of control [9]: 98%

Compound: Cc1cc(F)c(C(=O)Nc2cccc(-c3nncn3C(C)C)n2)cc1-n1cnc(C2CC2)c1
- % of control [10]: 100%

Compound: CNC(=O)Nc1ccc(-c2nc(N3CC4CCC(C3)O4)c3cnn(C4CCC5(CC4)OCCO5)c3n2)cc1
- % of control [11]: 62%

Compound: Cn1cc(-n2cnc3c(NCc4nc5cc(Cl)c(Cl)cc5[nH]4)nc(N4CCOCC4)nc32)cn1
- % of control [12]: 1.73%
